Assay results from ChEMBL document CHEMBL1201862, “PubChem BioAssay data set” (2004).
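Interpolation was linear, between the two tested concentrations surrounding the appropriate level; five concentrations were tested over 48 hours in 96-well plates. Abbreviation: GI50, concentration required for 50% inhibition of growth.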 Calls of active or inactive are those of the source. Cut-off read from the data, not from the text of the source: active = GI50 up to about 1.1 µM and inactive = higher.

What was measured:
Test in all cases: growth of human tumour cells (NCI), 48 h
ACHN = system: ACHN
CAKI-1 = system: CAKI-1
COLO 205 = system: COLO 205
HL-60 = system: HL-60
HOP-92 = system: HOP-92
M14 = system: M14
Malme-3M = system: Malme-3M
NCI-H226 = system: NCI-H226
OVCAR-5 = system: OVCAR-5
OVCAR-8 = system: OVCAR-8
PC-3 = system: PC-3
SK-MEL-2 = system: SK-MEL-2
SK-MEL-5 = system: SK-MEL-5
SR = system: SR
T47D = system: T47D
UO-31 = system: UO-31
EKVX = system: EKVX
NCI/ADR-RES = system: NCI/ADR-RES
OVCAR-4 = system: OVCAR-4

Row | SMILES | GI50 (ACHN) | GI50 (CAKI-1) | GI50 (COLO 205) | GI50 (HL-60) | GI50 (HOP-92) | GI50 (M14) | GI50 (Malme-3M) | GI50 (NCI-H226) | GI50 (OVCAR-5) | GI50 (OVCAR-8) | GI50 (PC-3) | GI50 (SK-MEL-2) | GI50 (SK-MEL-5) | GI50 (SR) | GI50 (T47D) | GI50 (UO-31) | GI50 (EKVX) | GI50 (NCI/ADR-RES) | GI50 (OVCAR-4)
1 | COc1ccc(C2c3cc4c(cc3OC(NNS(=O)(=O)c3ccc(C)cc3)C2C)OCO4)cc1 (stereo not drawn) | 74 µM (inactive) | 65.9 µM (inactive) | 36.3 µM (inactive) | 21.6 µM (inactive) | 21.1 µM (inactive) | > 100 µM (inactive) | > 100 µM (inactive) | > 100 µM (inactive) | > 100 µM (inactive) | > 100 µM (inactive) | 21 µM (inactive) | 59.7 µM (inactive) | 69.5 µM (inactive) | 9.12 µM (inactive) | 54.2 µM (inactive) | 31.2 µM (inactive) |  |  | 
2 | Cc1cc(-c2ccc[nH]2)on1 | > 100 µM (inactive) | > 100 µM (inactive) | > 100 µM (inactive) |  | > 100 µM (inactive) | > 100 µM (inactive) | > 100 µM (inactive) |  | > 100 µM (inactive) | > 100 µM (inactive) | > 100 µM (inactive) | > 100 µM (inactive) | > 100 µM (inactive) |  |  | > 100 µM (inactive) | > 100 µM (inactive) | > 100 µM (inactive) | > 100 µM (inactive)
3 | O=C(O)c1ccccc1/C=C1\Cc2cc3c(cc2C1=O)CCC3 | 34.4 µM (inactive) |  | 21.9 µM (inactive) | 6.59 µM (inactive) |  | 23.5 µM (inactive) | 26.9 µM (inactive) | 24 µM (inactive) | 57.1 µM (inactive) | 26.3 µM (inactive) |  | 23.4 µM (inactive) | 18.1 µM (inactive) | 4.72 µM (inactive) | 9.23 µM (inactive) | 33.9 µM (inactive) | 32.1 µM (inactive) | 17.3 µM (inactive) | 28.1 µM (inactive)
4 | CCCCCCCCCCCCCCCCCCNc1ccn(C2OC(COP(=O)(O)O)C(O)C2O)c(=O)n1 (stereo not drawn) | > 100 µM (inactive) | > 100 µM (inactive) | > 100 µM (inactive) |  | > 100 µM (inactive) | > 100 µM (inactive) |  | > 100 µM (inactive) | > 100 µM (inactive) | > 100 µM (inactive) | > 100 µM (inactive) | > 100 µM (inactive) | > 100 µM (inactive) |  | > 100 µM (inactive) | > 100 µM (inactive) | > 100 µM (inactive) | > 100 µM (inactive) | > 100 µM (inactive)
5 | CC1(C)OCC(C2OC(OC(=O)c3ccc(C(F)(F)F)cc3)C3OC(C)(C)OC23)O1 (stereo not drawn) | > 77.4 µM (inactive) | > 77.4 µM (inactive) | > 77.4 µM (inactive) |  |  | > 77.4 µM (inactive) | > 77.4 µM (inactive) | > 77.4 µM (inactive) | > 77.4 µM (inactive) | > 77.4 µM (inactive) | > 77.4 µM (inactive) | > 77.4 µM (inactive) | 74.5 µM (inactive) | 23.4 µM (inactive) |  | 19 µM (inactive) | > 77.4 µM (inactive) | 62.1 µM (inactive) | > 77.4 µM (inactive)
6 | O=C(O)CCSCc1ccccc1 | > 100 µM (inactive) | > 100 µM (inactive) | > 100 µM (inactive) | > 100 µM (inactive) |  | > 100 µM (inactive) | > 100 µM (inactive) | > 100 µM (inactive) | > 100 µM (inactive) | > 100 µM (inactive) | > 100 µM (inactive) | > 100 µM (inactive) | > 100 µM (inactive) |  | > 100 µM (inactive) | > 100 µM (inactive) | > 100 µM (inactive) | > 100 µM (inactive) | > 100 µM (inactive)
7 | COc1cc2c(cc1OCCCOc1cc(-c3ccc(F)cc3)nc(C)n1)N=C[C@@H]1CCCN1C2=O | 16.1 µM (inactive) | 17.5 µM (inactive) | 29.1 µM (inactive) | 24.9 µM (inactive) | 27.4 µM (inactive) | 15.5 µM (inactive) | 12.8 µM (inactive) | 15.2 µM (inactive) |  | 24.5 µM (inactive) |  | 17.2 µM (inactive) | 15.9 µM (inactive) | 10.4 µM (inactive) | 25.8 µM (inactive) | 17.7 µM (inactive) | 18.9 µM (inactive) |  | 33.5 µM (inactive)
8 | CCNC1(c2cccc(C)c2)OC(C)(C)c2cccc3cccc1c23 (stereo not drawn) | 17 µM (inactive) | 19.8 µM (inactive) | 16.1 µM (inactive) | 0.646 µM (active) | 3.83 µM (inactive) | 17.8 µM (inactive) | 16.3 µM (inactive) | 19.9 µM (inactive) | 19.1 µM (inactive) | 18.4 µM (inactive) |  | 15.7 µM (inactive) | 19.1 µM (inactive) | 5.16 µM (inactive) | 26.9 µM (inactive) | 16.1 µM (inactive) | 18.8 µM (inactive) | 19.8 µM (inactive) | 16 µM (inactive)
9 | CC(=O)OC1OC(c2ccoc2)C[C@@]12C1CCC3O[C@]3(C)[C@]1(C)[C@H](OC(C)=O)[C@H](OC(C)=O)[C@H]2C (stereo partly drawn) | > 37.5 µM (inactive) | > 37.5 µM (inactive) | > 37.5 µM (inactive) | 6.62 µM (inactive) | > 37.5 µM (inactive) | > 37.5 µM (inactive) | > 37.5 µM (inactive) | > 37.5 µM (inactive) | > 37.5 µM (inactive) | > 37.5 µM (inactive) | > 37.5 µM (inactive) | > 37.5 µM (inactive) | > 37.5 µM (inactive) | 18.1 µM (inactive) |  | > 37.5 µM (inactive) | > 37.5 µM (inactive) | > 37.5 µM (inactive) | > 37.5 µM (inactive)
10 | COc1ccc2c(c1)CC[C@@H]1C2CC[C@]2(C)C(=O)N(CCN(C)C)C(=O)CC12 (stereo partly drawn) | > 100 µM (inactive) | > 100 µM (inactive) | > 100 µM (inactive) | > 100 µM (inactive) | > 100 µM (inactive) | > 100 µM (inactive) | > 100 µM (inactive) | > 100 µM (inactive) | > 100 µM (inactive) | > 100 µM (inactive) | > 100 µM (inactive) |  | 83.9 µM (inactive) | > 100 µM (inactive) | > 100 µM (inactive) | > 100 µM (inactive) | > 100 µM (inactive) |  | > 100 µM (inactive)
11 | c1ccc2/c3[nH]/c(c2c1)=N\c1ccc(cc1)-c1nc2cc(ccc2o1)/N=c1/[nH]/c(c2ccccc12)=N/c1ccc2nc(oc2c1)-c1ccc(cc1)\N=3 | > 100 µM (inactive) | > 100 µM (inactive) | > 100 µM (inactive) | > 100 µM (inactive) |  | > 100 µM (inactive) |  |  | > 100 µM (inactive) |  | > 100 µM (inactive) |  | > 100 µM (inactive) | > 100 µM (inactive) |  | > 100 µM (inactive) | > 100 µM (inactive) | 32.1 µM (inactive) | > 100 µM (inactive)
12 | C/C(=N\[N+](C)(C)C)C(c1ccccc1)C1(c2ccccc2)C(c2ccccc2)=C1c1ccccc1 (stereo not drawn) | 88.1 µM (inactive) | > 100 µM (inactive) |  | > 100 µM (inactive) | 50.9 µM (inactive) | > 100 µM (inactive) | > 100 µM (inactive) | 19.4 µM (inactive) | > 100 µM (inactive) | 67.5 µM (inactive) |  | > 100 µM (inactive) | > 100 µM (inactive) |  |  | 53.1 µM (inactive) | 40.7 µM (inactive) |  | > 100 µM (inactive)
13 | CCNC(=S)NNC(=O)C12CC3CC(CC(C3)C1)C2 | > 100 µM (inactive) | > 100 µM (inactive) | > 100 µM (inactive) | > 100 µM (inactive) |  | > 100 µM (inactive) | > 100 µM (inactive) | > 100 µM (inactive) | > 100 µM (inactive) | > 100 µM (inactive) | > 100 µM (inactive) | > 100 µM (inactive) | > 100 µM (inactive) |  | > 100 µM (inactive) | > 100 µM (inactive) |  | > 100 µM (inactive) | > 100 µM (inactive)
14 | CCOc1ccc(/C=C2/C(=O)N/C(=N\C(C)=O)N2C)cc1 | > 100 µM (inactive) | > 100 µM (inactive) | > 100 µM (inactive) | 17.9 µM (inactive) | > 100 µM (inactive) | > 100 µM (inactive) |  | > 100 µM (inactive) | > 100 µM (inactive) | > 100 µM (inactive) |  | > 100 µM (inactive) | > 100 µM (inactive) |  | > 100 µM (inactive) | > 100 µM (inactive) | 54.2 µM (inactive) | > 100 µM (inactive) | > 100 µM (inactive)
15 | Cn1c(=O)n2n(c1=O)C(S(=O)(=O)c1ccccc1)C2 (stereo not drawn) | > 100 µM (inactive) | > 100 µM (inactive) | > 100 µM (inactive) |  | > 100 µM (inactive) | > 100 µM (inactive) | > 100 µM (inactive) |  | > 100 µM (inactive) | > 100 µM (inactive) | > 100 µM (inactive) | > 100 µM (inactive) | > 100 µM (inactive) |  |  | > 100 µM (inactive) | > 100 µM (inactive) | > 100 µM (inactive) | > 100 µM (inactive)
16 | Cn1c(=O)c2c(nc(-n3nc(-c4ccc(Cl)cc4)cc3N)n2C)n(C)c1=O | > 100 µM (inactive) | > 100 µM (inactive) | > 100 µM (inactive) | > 100 µM (inactive) | > 100 µM (inactive) | > 100 µM (inactive) | 7.13 µM (inactive) | 55.2 µM (inactive) | 79.8 µM (inactive) | 18.1 µM (inactive) | > 100 µM (inactive) | > 100 µM (inactive) | 6.37 µM (inactive) | 13 µM (inactive) |  | > 100 µM (inactive) | > 100 µM (inactive) | 39.6 µM (inactive) | 5.6 µM (inactive)
17 | CCOC(=O)Nc1[nH]cc(-c2ccccc2)c1C#N | > 100 µM (inactive) |  | > 100 µM (inactive) | > 100 µM (inactive) |  | > 100 µM (inactive) | > 100 µM (inactive) | > 100 µM (inactive) | > 100 µM (inactive) | > 100 µM (inactive) | > 100 µM (inactive) | > 100 µM (inactive) | > 100 µM (inactive) | > 100 µM (inactive) |  | > 100 µM (inactive) | > 100 µM (inactive) | > 100 µM (inactive) | > 100 µM (inactive)
